Reference: US5214034A, “Catechol derivatives, and preventive and remedial preparations for regressive disorders in the central nervous system containing the same” (priority 1986, dated 1993)
Read-outs that look alike come from different tables or passages of the source.

Experiments:
[1] = test system: production and secretion of NGF on L-M cells; test: Promoting action for the production and secretion of NGF on L-M cells of mouse (ELISA); assay type: cell-based; conditions: for fold induction at 30 µM / fold induction at 100 µM / fold induction at 150 µM: Mus musculus; for Ratio of NGF increase: 1440 min
Text: Catecholamines have also been found in a relatively high concentration to accelerate these functions without being mediated by adrenergic receptors [Y. Furukawa et al., J. Biol. Chem., 261, 6039-6047 (1986)].
The compound having a high activity in Table 1, that is, the catechol derivative having a n-alkyl group in the 3 or 4 position on the ring has been observed an acute cell toxicity in higher concentrations. The toxicity was considered the result of two hydroxyl groups in the catechol structure. Then the hydroxyl groups were esterified or etherified and the resulting derivative was examined the effect on the activity for the production and secretion of NGF.
The experiment was performed according to the procedures of Y. Furukawa et al. which is described in J. Bis Chem., 261, 6039-6047 (1986).
The medium was cultured for 3 days at a temperature of 37° C. After completing the confluency (about 10^6 cells/well), the medium was changed to Medium 199 (0.5 ml/well) containing 0.5% bovine serum albumin (Fraction V, a product of Armour Co.). The sample of the derivative is contained in the medium at a prescribed concentration as illustrated in the Tables.

[2] = test system: production and secretion of NGF in brain astroglial cells; test: Promoting activity for the production and secretion of NGF in brain astroglial cells of mouse (ELISA)
Description: The experiment was performed by inducing the astroglial cells from mouse forebrain to culture system according to the procedures of S. Furukawa et al. which is described in Biochem. Biophys. Res. Commun., 136, 57-63 (1986).
That is, forebrains of 8-day old mice were dissected out and cut into small pieces. […] Cells and cell clamps were recovered by centrifugation at 200 xg for 5 minutes. They were cultured in Dulbecco modified Eagle's medium (a product of Gibco Co. hereinafter abbreviated as DMEM) containing 10% of fetal calf serum, […] of penicillin, and 50 μg/ml of streptomycin, for 10 to 14 days with medium changes every 3 days. After completing confluency, the cells were dissociated by trypsin treatment and recultured in new culture flasks. This procedure was repeated further twice and more. […] The cells will hereinafter be referred to as astroglial cells.
Astroglial cells were innoculated in 24-well plates having a well surface area of 2.1 cm^2 (a product of Falcon Co.) at a cell density of about 3×10^4 cells/well and cultured for 3 days in DMEM . medium supplemented with 10% of fetal calf serum. After completing confluency about 10^7 cells/well), the medium was changed to DMEM medium (0.5 ml/well) supplemented with 0.5% of bovine serum albumin ((fraction V) and cultured for 3 days. The culture was further continued with medium changes every 3 days. After cells were practically synchronized in the quiscent stage, the medium was changed to 0.5 ml of the medium supplemented with 0.5% of bovine serum albumin and containing a prescribed concentration of test sample as illustrated in Tables. […] Data are expressed as fold increase in NGF content over that in the absence of the test sample. […] Data are presented as means ±SE of four determinations.

[3] = 24 h, Table 1, 0.03 mM, 24 hours, mean ± SE of four determinations, read-out: Ratio of NGF increase
[4] = 24 h, Table 1, 0.10 mM, 24 hours, mean ± SE of four determinations, read-out: Ratio of NGF increase
[5] = 24 h, read-out: Ratio of NGF increase, 24-hr culture
[6] = 48 h, read-out: Ratio of NGF increase, 48-hr culture
[7] = 24 h, Table 2, 0.03 mM, 24-hr culture, read-out: Ratio of NGF increase, 24-hr culture
[8] = 24 h, Table 2, 0.15 mM, 24-hr culture, read-out: Ratio of NGF increase, 24-hr culture
[9] = 48 h, Table 2, 0.03 mM, 48-hr culture, read-out: Ratio of NGF increase, 48-hr culture
[10] = 48 h, Table 2, 0.15 mM, 48-hr culture, read-out: Ratio of NGF increase, 48-hr culture
[11] = 24 h, read-out: Ratio of NGF increase, 24-hr culture, Table 4, 0.10 mM, 24-hr culture
[12] = 24 h, read-out: Ratio of NGF increase, 24-hr culture, Table 4, 0.25 mM, 24-hr culture
[13] = 48 h, read-out: Ratio of NGF increase, 48-hr culture, Table 4, 0.10 mM, 48-hr culture
[14] = 48 h, read-out: Ratio of NGF increase, 48-hr culture, Table 4, 0.25 mM, 48-hr culture
[15] = 24 h, read-out: Ratio of NGF increase, Table 3, 0.10 mM, 24 hours, mean ± SE of four determinations
[16] = 24 h, read-out: Ratio of NGF increase, Table 3, 0.25 mM, 24 hours, mean ± SE of four determinations
[17] = 24 h, read-out: Ratio of NGF increase

| Structure (SMILES) | fold induction at 30 µM [1, 3] | fold induction at 100 µM [1, 4] | fold induction at 100 µM [2, 15] | fold induction at 250 µM [2, 16] | other results |
| --- | --- | --- | --- | --- | --- |
| CCCc1c(C)ccc(O)c1O [R = Two H, R1 = n-Propyl, R2 = Methyl] | 6.09 ± 0.65 | 6.98 ± 0.51 |  |  |  |
| COc1ccc(C)cc1OC [R = Two methyl, R1 = H, R2 = Methyl, reference compound] |  |  |  |  | fold induction at 30 µM [1, 5]: 1.04 ± 0.07; fold induction at 150 µM [1, 5]: 0.98 ± 0.06; fold induction at 30 µM [1, 6]: 1.03 ± 0.07; fold induction at 150 µM [1, 6]: 0.98 ± 0.02 |
| Cc1ccc2c(c1)OC(C)(C)O2 [C(CH3)2 -, R1 = H, R2 = Methyl, 5,2,2-trimethyl-1,3-benzodioxol] |  |  |  |  | fold induction at 30 µM [1, 7]: 1.35 ± 0.12; fold induction at 150 µM [1, 8]: 1.22 ± 0.08; fold induction at 30 µM [1, 9]: 4.33 ± 1.05; fold induction at 150 µM [1, 10]: 3.86 ± 0.84; fold induction at 100 µM [2, 11]: 28.6 ± 2.23; fold induction at 250 µM [2, 12]: 33.7 ± 2.09; fold induction at 100 µM [2, 13]: 41.6 ± 2.21; fold induction at 250 µM [2, 14]: 55.2 ± 4.42 |
| CCC(C)c1ccc(O)c(O)c1 (stereo not shown) [R = Two H, R1 = H, R2 = sec-Butyl] | 9.23 ± 1.41 | 14.7 ± 1.87 | 36.3 ± 3.49 | 70.1 ± 5.75 |  |
| CCCc1ccc(O)c(O)c1C [R = Two H, R1 = Methyl, R2 = n-Propyl] | 6.34 ± 0.46 | 7.25 ± 0.32 | 41.3 ± 2.55 | 61.6 ± 4.62 |  |
| CCc1ccc(O)c(O)c1C [R = Two H, R1 = Methyl, R2 = Ethyl] | 6.31 ± 0.39 | 3.19 ± 0.73 | 50.3 ± 6.27 | 26.2 ± 2.6 | Ratio of NGF increase ([1]; Table 1, 0.03 mM, 24 hours, mean ± SE of four determinations, 30 µM): 5.39 ± 0.31 fold; Ratio of NGF increase ([1]; Table 1, 0.10 mM, 24 hours, mean ± SE of four determinations, 100 µM): 5.22 ± 0.27 fold |
| CCCCc1c(C)ccc(O)c1O [R = Two H, R1 = n-Butyl, R2 = Methyl] | 6.33 ± 0.75 | 6.9 ± 0.62 |  |  |  |
| CCc1cccc(O)c1O [R = Two H, R1 = Ethyl, R2 = H] |  |  |  |  | fold induction at 30 µM [1, 17]: 9.76 ± 1.4; fold induction at 100 µM [1, 17]: 11.7 ± 2.13; fold induction at 100 µM [2, 17]: 46.2 ± 3.97; fold induction at 250 µM [2, 17]: 62.8 ± 4.42 |
| CCCCc1cccc(O)c1O [R = Two H, R1 = n-Butyl, R2 = H] | 8.33 ± 0.52 |  | 56.2 ± 1.87 | 93.3 ± 1.65 |  |
| Cc1ccc(O)c(O)c1C [R = Two H, R1 = Methyl, R2 = Methyl] | 2.86 ± 0.12 | 3.11 ± 0.22 |  |  |  |
| CC(C)c1ccc(O)c(O)c1 [R = Two H, R1 = H, R2 = Isopropyl] | 6.17 ± 0.44 | 5.9 ± 0.41 | 34.6 ± 1.62 | 42.9 ± 2.93 |  |
| Cc1ccc2oc(=O)c(=O)oc2c1 [CO.CO-, R1 = H, R2 = Methyl, 6-methyl-1,4-benzodioxine-2,3-dione] |  |  |  |  | fold induction at 30 µM [1, 7]: 4.24 ± 0.58; fold induction at 150 µM [1, 8]: 4.62 ± 0.61; fold induction at 30 µM [1, 9]: 7.6 ± 0.43; fold induction at 150 µM [1, 10]: 7.03 ± 0.69; fold induction at 100 µM [2, 11]: 47.2 ± 3.98; fold induction at 250 µM [2, 12]: 50.6 ± 4.74; fold induction at 100 µM [2, 13]: 69.6 ± 3.25; fold induction at 250 µM [2, 14]: 70.2 ± 5.37 |
| CCCCCc1cccc(O)c1O [R = Two H, R1 = n-Pentyl, R2 = H] | 5.26 ± 0.43 | 9.95 ± 0.98 | 37.2 ± 1.28 | 51.5 ± 1.4 |  |
